Legend:
[1] = target: T1, ATP-sensitive inward rectifier potassium channel 1 (Homo sapiens, UniProt P48048); assay: Thallium Flux Assay: The ROMK channel functional thallium flux assay is performed in 384 wells, using the FLIPR-Tetra instrument. HEK-hKir1.1 cells are seeded in Poly-D-Lysine microplates and kept in a 37° C.-10% CO2 incubator overnight. On the day of the experiment, the growth media is replaced with the FluxOR reagent loading buffer and incubated, protected from light, at ambient temperature (23-25° C.) for 90 min. The loading buffer is replaced with assay buffer test compound followed by 30 min incubation at ambient temperature, where the Thallium/Potassium stimulant is added to the microplate. Step Protocol 1. Seed HEK-hKir1.1 cells (50 ul at 20,000 cells/well) in 384-well PDL coated Microplates 2. Allow cells to adhere overnight in humidified 37° C./10% CO2 incubator 3. Completely remove cell growth media from microplate and replace with 25 ul loading buffer 4. Incubate Microplate at room temperature, protected form light, for 90 min 5. Remove loading buffer and replace with 25 ul 1x Assay Buffer±test compound.Â 6. Incubate microplate at room temperature, protected form light, for 30 min 7. At FLIPR-Tetra 384: Add stimulant (Thallium/Potassium) solution to microplate and monitor fluorescence. Excitation=400 nm, Emission=460 & 580 nm. Collect data for 10 min.Â Data Calculation: The fluorescence intensity of wells containing 3 uM of a standard control ROMK inhibitor of the present invention is used to define the ROMK-sensitive component of thallium flux. Fluorescence in the presence of test compounds is normalized to control values to provide % fluorescence change.
T1 sequence (P48048 whole entry): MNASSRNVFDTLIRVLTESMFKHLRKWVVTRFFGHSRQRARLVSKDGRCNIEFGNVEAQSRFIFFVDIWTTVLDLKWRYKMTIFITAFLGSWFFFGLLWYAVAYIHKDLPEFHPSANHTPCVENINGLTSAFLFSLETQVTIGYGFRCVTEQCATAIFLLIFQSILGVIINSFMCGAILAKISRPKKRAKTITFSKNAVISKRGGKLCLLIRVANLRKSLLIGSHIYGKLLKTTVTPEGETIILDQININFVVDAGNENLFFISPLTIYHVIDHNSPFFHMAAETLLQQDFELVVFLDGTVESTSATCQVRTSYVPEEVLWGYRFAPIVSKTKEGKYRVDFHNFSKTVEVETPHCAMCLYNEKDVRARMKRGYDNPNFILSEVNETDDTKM

[2] = target: T1, ATP-sensitive inward rectifier potassium channel 1; assay: Electrophysiology Assay: Block of Kir1.1 (ROMK1) currents was examined by whole cell voltage clamp (Hamill et. al. Pfluegers Archives 391:85-100 (1981)) using the IonWorks Quattro automated electrophysiology platform (Molecular Devices, Sunnyvale, Calif.). Chinese hamster ovary cells stably expressing Kir1.1 channels were maintained in T-75 flasks in cell culture media in a humidified 10% CO2 incubator at 37° C. Prior to an experiment, Kir1.1 expression was induced by overnight incubation with 1 mM sodium butyrate. On the day of the experiment, cells were dissociated with 2.5 ml of Versene (Invitrogen 15040-066) for approximately 6 minutes at 37° C. and suspended in 10 ml of bath solution containing (in mM): 150 NaCl, 10 KCl, 2.7 CaCl2, 0.5 MgCl2, 5 HEPES, pH 7.4. After centrifugation, the cell pellet was resuspended in approximately 4.0 ml of bath solution and placed in the IonWorks instrument. The intracellular solution consisted of (in mM): 80 K gluconate, 40 KCl, 20 KF, 3.2 MgCl2, 3 EGTA, 5 Hepes, pH 7.4. Electrical access to the cytoplasm was achieved by perforation in 0.13 mg/ml amphotericin B for 4 minutes. Amphotericin B (Sigma A-4888) was prepared as a 40 mg/ml solution in DMSO.; assay type: cell-based

Row | IC50 [1] [µM] | IC50 [2] [µM] | SMILES
1 | 1.21 | – | Cc1c([C@@H](O)CN2CCC3(CC2)CCN(C[C@H](O)c2ccc4c(c2C)COC4=O)C3)ccc2c1COC2=O
2 | 0.091 | 0.011 | Cc1c([C@@H](O)CN2CCC3(CCCN3C[C@H](O)c3ccc4c(c3C)COC4=O)C2)ccc2c1COC2=O (stereo partly specified)
3 | – | 0.039 | Cc1c([C@@H](O)CN2C(C)CC3CN(CC(O)c4ccc(C#N)cn4)CC32)ccc2c1COC2=O (single isomer, unassigned)
4 | 0.402 | 0.062 | Cc1c([C@@H](O)CN2CCC3CN(S(=O)(=O)c4ccc(C#N)cc4)CC32)ccc2c1COC2=O (single isomer, unassigned)

From ChEMBL document CHEMBL3887000, “Inhibitors of the renal outer medullary potassium channel” (2016)
